One data set has as its system HCT116 cells. Briefly: Growth inhibition / cell viability assay (methylene blue), HCT116. In kind it is cell-based, human. On the procedure:
Cell feasibility was examined using methylene blue staining. Cells were plated at a rate of 5000/well in 96 well plates (n=3) respectively and treated the next day. Three days after treatment, cells were fixed/stained in methylene blue saturated in 50% ethanol for 30 min at room temperature. Excessive water was used to wash off extra dye from the plates.

Data set [1] in a line: S9 fraction metabolic stability assay (LC-ESI-MS). The format is in vitro ADME. The note with it: human liver S9 fraction. The text has this:
Previous studies established that trifluoromethyl ketones are metabolically unstable and reduced in vivo to trifluoromethyl alcohols (TFMAs). This metabolic reduction caused a major loss in activity. […] It was believed that in TFPAs, the hydrate form of the ketone is stabilized compared to TFMKs, and is therefore less susceptible to reductive metabolism. […] Metabolic stability studies are primarily conducted using liver microsomal assays, as the predominant cytochrome P450 enzymes present in them are responsible for the metabolism of most xenobiotics in the human body. However, P450 transformations are mostly oxidative in nature, precluding their use to assess the stability of ketone drugs against reductive metabolism. […] Thus, using a liver extract containing both cytosol and microsomal enzymes would be more appropriate for this assay. This was accomplished by using the S9 fraction, which is basically the supernatant obtained from centrifugation of hepatocytes at 9000 g and contains both liver cytosol and microsomal enzymes. LC-ESI-MS was used to monitor the reduction of TFPA 60 over time and it was compared with TFMK 91.
A protocol similar to the one previously employed by others using Human Liver S9 fractions instead of liver microsomes was used for the metabolism studies. The assay was initiated by incubating a mixture of the substrate (0.02 mM), buffer (0.1M), and NADPH (1 mM) at 37° C. for ten minutes, followed by addition of the S9 fraction (0.5 mg) to the mixture and gentle mixing. The total volume of the reaction mixture was maintained at 1 mL. […] The reactions in the aliquots were terminated by adding an equal volume of ethyl acetate, mixing thoroughly, and transferring into micro centrifuge tubes. They were vortexed for 2 minutes and then subjected to centrifugation at 10,000×g for 15 minutes to remove the proteins. The top organic layers were extracted and evaporated under reduced pressure. The organic residues from the aliquots were dissolved in methanol first, then diluted 1:1 with water, and analyzed using LC-ESI-MS. A 450 μL aliquot of compound 60 with concentration of 0.02 mM contains 9 nanomoles, which after evaporation, was dissolved in 500 μL of methanol to give 18 μM in concentration of 60. This was diluted 1:1 with water to give a final concentration of 9 μM, which was used for LC-ESI-MS. Similarly, 200 μL of TFMK 91 at a concentration of 0.02 mM contains 4 nanomoles, which after removing ethyl acetate, and dissolving in 250 μL of methanol gives 16 μM concentration of 91. This was diluted 1:1 with water to give 8 μM final concentration for LC-ESI-MS.
The solvent flow rate was 0.2 mL/min, and the sample injection volume was 20 μL. […]

Data set [2] has as its system sixty cell lines. The data set is described as follows: NCI 60 cell five-dose assay. In kind it is cell-based. The note with it: Total Growth Inhibition.
The next data set concerns PARP1. Briefly: Western blot analysis of PARP1 cleavage in HCT116 cells. In kind it is cell-based, human. As to conditions: HCT116 cells treated for 24 h; measure of caspase dependent cell death. As to the method: FIG. 13: Western blot analysis of PARP1 cleavage. HCT116 cells were treated with compounds 83, 84, and 85 at the indicated concentrations for 24 hr. Western blots were probed with an antibody that recognizes a cleaved form of PARP (Cell Signaling Technology 5626) as a measure of caspase dependent cell death.
To determine whether the compounds herein induced apoptosis, the enzyme Poly (ADP ribose) polymerase 1 (PARP1) was analyzed by western blotting. Caspase-dependent proteolytic cleavage of PARP1 is one of the hall marks of apoptosis and antibodies that specifically recognize the cleavage products are available. […] HCT116 cells were treated with compounds 83, 84, and 85 for 24 h.
NCI-H522 cell pellets obtained were lysed using lysis buffer containing 50 mM Tris (pH 7.4), 150 mM NaCl, 0.5% NP-40, (supplemented with 1 μg/ml aprotinin, 2 μg/ml leupeptin, 1 μg/ml pepstatin A, 1 mM DTT, and […]) for 30 minutes on ice and centrifuged at 13×10^3 g for 25 minutes at 4° C. The protein levels of the obtained lysates were normalized using BCA Protein Assay Kit (Pierce) and separated by SDS-polyacrylamide gel electrophoresis (12.5% acrylamide). Transfer to polyvinylidene difluoride membranes (Millipore) was followed by obstruction of membranes with blocking buffer containing 5% (w/v) non-fat dry milk dissolved in PBST [1×PBS containing 0.05% (v/v) Tween 20] for 1 hour at room temperature. Membranes were then incubated with corresponding primary antibodies overnight at 4° C. The membranes were then washed (3×15 min each) with PBST and incubated with secondary antibodies conjugated to horse-radish peroxidase, obtained from Biorad, and used at a dilution of 1:10,000. Bound antibodies were detected using enhanced chemiluminescence (Biorad).
(Immunoblotting shows a protein as a band on a membrane.)

For data set [3], the system named is sixty cell lines. The data set is described as follows: NCI 60 cell one-dose assay. The format is cell-based. The note with it: result in words.
Where [4] appears, read: Homo sapiens, HCT-116, zinc-binding group screen, growth inhibition, HCT116 cells, maximum concentration of 100 μM, read-out: HCT116 IC50.
Setting [5] is: Homo sapiens, HCT-116, cap group SAR, HCT116 cell line, maximum concentration of 40 μM, read-out: IC50.
[6] abbreviates: Homo sapiens, HCT-116, read-out: IC50 (μM) HCT116.
[7] abbreviates: zinc-binding group screen, growth inhibition, HCT116 cells, maximum concentration of 100 μM.

SMILES strings stand for the structures. pIC50: −log10 of the molar value. Read-outs that look alike come from different tables or passages of the source.

Consider `CC(=O)C(=O)NCCCCC(=O)Nc1ccccc1`, for which, in the data set with HCT116 cells (setting [4]), the pIC50 (commonly −log10 of the IC50, conventionally taken in molar units) was less than 4.00.

In the case of `CC(=O)C(=O)NCCCCCC(=O)Nc1ccccc1`, the pIC50 in the data set with HCT116 cells (setting [4]) was less than 4.00.

Consider `CC(=O)C(=O)NCCCCCCC(=O)Nc1ccccc1`, for which the negative-log IC50 (pIC50) in the data set on HCT116 cells (setting [4]) is less than 4.00.

Regarding `C/C(=N\O)C(=O)NCCCCC(=O)Nc1ccccc1`, in the data set on HCT116 cells (setting [4]), the pIC50 was less than 4.00.

As to `C/C(=N\O)C(=O)NCCCCCC(=O)Nc1ccccc1`, the pIC50 with HCT116 cells (setting [4]) is less than 4.00.

On to `C/C(=N\O)C(=O)NCCCCCCC(=O)Nc1ccccc1`, for which the pIC50 in the data set with HCT116 cells (setting [4]) is less than 4.00.

For the compound `NC(=O)C(=O)NCCCCC(=O)Nc1ccccc1`, the pIC50 in the data set with HCT116 cells (setting [4]) was less than 4.00.

`NC(=O)C(=O)NCCCCCC(=O)Nc1ccccc1`: in the data set with HCT116 cells (setting [4]), the pIC50 was less than 4.00.

Take `NC(=O)C(=O)NCCCCCCCC(=O)Nc1ccccc1`: the negative logarithm of the IC50 (pIC50) with HCT116 cells (setting [4]) was less than 4.00.

Regarding `OC(c1c(F)c(F)c(-n2cc(-c3ccccc3)nn2)c(F)c1F)C(F)(F)F` (stereo not shown), the pIC50 with HCT116 cells (setting [4]) was less than 4.00.

With `OC(O)(c1c(F)c(F)c(-n2cc(-c3ccccc3)nn2)c(F)c1F)C(F)(F)F`, the pIC50 in the data set with HCT116 cells (setting [4]) was less than 4.00.

Consider `O=C(CCCCCNC(=O)c1ccc[nH]1)Nc1ccccc1`, for which, in the data set with HCT116 cells (setting [4]), the pIC50 was less than 4.00.

In the case of `O=C(CCCCNC(=O)c1cc(=O)c(O)co1)Nc1ccccc1`, the pIC50 in the data set with HCT116 cells (setting [4]) was less than 4.00.

For `O=C(CCCCCNC(=O)c1cc(=O)c(O)co1)Nc1ccccc1`, the pIC50 in the data set with HCT116 cells (setting [4]) is less than 4.00.

For the compound `O=C(CCCCCCNC(=O)c1cc(=O)c(O)co1)Nc1ccccc1`, the pIC50 in the data set on HCT116 cells (setting [4]) is less than 4.00.

For `O=C(CCCCCCC(O)C(F)(F)F)Nc1ccccc1` (stereo not shown), the pIC50 in the data set on HCT116 cells (setting [5]) was less than 4.40.

As to `O=C(CCCCCNC(=O)C(O)(O)C(F)(F)F)Nc1ccccc1` [Compound 10b, N-phenyl-6-(3,3,3-trifluoro-2,2-dihydroxypropanamido)hexanamide], the melting point (usually the temperature, or range, at which the solid turns liquid) lay in the range of 103 to 108 °C. For the same compound, the IC50 (in general, the point on the concentration scale where inhibition reaches its midpoint) in the data set with HCT116 cells (setting [6]) stood at 54.4 µM. In addition, in the data set with HCT116 cells (setting [4]), the pIC50 was 4.26. Moreover, the “HCT116 IC50” value in the data set on HCT116 cells (setting [7]) was “demonstrated antiproliferative activity”.

Compound `O=C(CCCCCCNC(=O)C(O)(O)C(F)(F)F)Nc1ccccc1` [Compound 10c, N-phenyl-7-(3,3,3-trifluoro-2,2-dihydroxypropanamido)heptanamide] gave a melting point of 123 to 128 °C. The IC50 in the data set with HCT116 cells (setting [6]) was 9.14 µM.

Regarding `COc1cccc(NC(=O)CCCCCCNC(=O)C(O)(O)C(F)(F)F)c1` [Compound 59, N-(3-methoxyphenyl)-7-(3,3,3-trifluoro-2,2-dihydroxypropanamido)heptanamide], the melting point lay within 120 to 125 °C. Also, the pIC50 with HCT116 cells (setting [5]) is 5.21.

In turn, `O=C(CCCCCCNC(=O)C(O)(O)C(F)(F)F)Nc1nccs1` [Compound 60, N-(thiazol-2-yl)-7-(3,3,3-trifluoro-2,2-dihydroxypropanamido)heptanamide] registered a melting point of 137 to 142 °C. Further, the “time over which parent M+1 peak did not disappear” value in data set [1] (NADPH, 37° C., LC-ESI-MS, aliquots at 1h, 2 hrs) was “over 2 hours”. In addition, in data set [1] (result in words), the “metabolic reduction to the alcohol” value is listed as “no reduction to the alcohol”.

In the case of `O=C(CCCCCCNC(=O)C(O)(O)C(F)(F)F)Nc1ccc(Cl)cc1` [Compound 64, N-(4-chlorophenyl)-7-(3,3,3-trifluoro-2,2-dihydroxypropanamido)heptanamide], the TGI (in general, the concentration giving total growth inhibition) in the data set with sixty cell lines [2] stood at 26.92 µM.

Turning to `O=C(CCCCCCNC(=O)C(O)(O)C(F)(F)F)Nc1ccc(Br)cc1` [Compound 65, N-(4-bromophenyl)-7-(3,3,3-trifluoro-2,2-dihydroxypropanamido)heptanamide], the “TGI” value with sixty cell lines [2] was determined as 20.89 µM.

The compound `COc1ccccc1NC(=O)CCCCCCNC(=O)C(O)(O)C(F)(F)F` [Compound 66, N-(2-methoxyphenyl)-7-(3,3,3-trifluoro-2,2-dihydroxypropanamido)heptanamide] displayed a melting point of 105 to 110 °C. Moreover, the pIC50 in the data set on HCT116 cells (setting [5]) is 5.00.

`O=C(CCCCCCNC(=O)C(O)(O)C(F)(F)F)Nc1nc(-c2ccccc2)c(-c2ccccc2)s1` [Compound 68, N-(4,5-diphenylthiazol-2-yl)-7-(3,3,3-trifluoro-2,2-dihydroxypropanamido)heptanamide] registered a melting point of 143 to 148 °C. The pIC50 in the data set on HCT116 cells (setting [5]) is 4.52.

Regarding `O=C(CCCCCCNC(=O)C(O)(O)C(F)(F)F)Nc1ccc(-c2ccccc2)cc1` [Compound 69, N-([1,1′-biphenyl]-4-yl)-7-(3,3,3-trifluoro-2,2-dihydroxypropanamido)heptanamide], the “TGI” value with sixty cell lines [2] is 15.14 µM.

Consider `O=C(CCCCCCNC(=O)C(O)(O)C(F)(F)F)Nc1ccccc1Br` [Compound 75, N-(2-bromophenyl)-7-(3,3,3-trifluoro-2,2-dihydroxypropanamido)heptanamide], for which the melting point lay within 108 to 113 °C. Moreover, in the data set with HCT116 cells (setting [5]), the pIC50 was 4.84.

Turning to `O=C(CCCCCCNC(=O)C(O)(O)C(F)(F)F)Nc1ncc(-c2ccc(Br)cc2)s1` [Compound 85, N-(5-(4-bromophenyl)thiazol-2-yl)-7-(3,3,3-trifluoro-2,2-dihydroxypropanamido)heptanamide], the “PARP1 cleavage (cleaved PARP1)” value in the data set with PARP1 is recorded as “Dose-dependent elevation of cleaved PARP1 was detectable”. Further, in the data set with sixty cell lines [3], the “cytostatic / cytotoxic activity in NCI 60 assays” value is listed as “cytotoxic effects”. Also, the “TGI” value in the data set on sixty cell lines [2] is 11.4 µM.

`O=C(CCCCCCNC(=O)C(O)(O)C(F)(F)F)Nc1ncc(-c2ccc(O)cc2)s1` [Compound 86, N-(5-(4-hydroxyphenyl)thiazol-2-yl)-7-(3,3,3-trifluoro-2,2-dihydroxypropanamido) heptanamide]: the melting point lay in the range of 145 to 150 °C.

As for `CCOc1ccc(-c2cnc(NC(=O)CCCCCCNC(=O)C(O)(O)C(F)(F)F)s2)cc1` [Compound 87, N-(5-(4-ethoxyphenyl)thiazol-2-yl)-7-(3,3,3-trifluoro-2,2-dihydroxypropanamido)heptanamide], the melting point lay within 138 to 143 °C. In the data set with HCT116 cells (setting [5]), the negative logarithm of the IC50 (pIC50) is 5.39.

On to `O=C(CCCCCCCNC(=O)c1cc(=O)c(O)co1)Nc1ccccc1` [Compound 89], for which the “HCT116 IC50” value with HCT116 cells (setting [7]) was “inactive”.

Regarding `O=C(CCCCCCNC(=O)C(O)C(F)(F)F)Nc1nccs1` (stereo not shown) [Compound 92], the IC50 entry in the data set with HCT116 cells (cap group SAR, HCT116 cell line, maximum concentration of 40 μM) was “inactive”.

For `O=C(CCCCCCCNC(=O)c1cc(=O)c(O)co1)Nc1ccccc1` [drawing 33], in the data set with HCT116 cells (setting [4]), the pIC50 was less than 4.00.

Consider `O=C(CCCCCCNC(=O)C(O)C(F)(F)F)Nc1nccs1` (stereo not shown) [drawing 78], for which, in the data set with HCT116 cells (setting [5]), the pIC50 is less than 4.40.

Values taken from patent US20240360089A1, “Metabolically Stable HDAC Inhibitors with Trifluoromethylpyruvamide as Metal-Binding Group” (The University of Toledo, priority 2023, published 2024).
